Measured values reported in paper PMC12591484 (PLOS One, 2025).

Columns and labels:
Test in all cases: Drug protection from pCMBS modification (SCAMP)
Assay type in all cases: cell-based
[1] = molecular target: T1, α1M236Cβ3γ2L GABAA receptors (Homo sapiens, UniProt P14867+P18507+P28472, M263C); details: α1M236C (α–); pCMBS 10 µM x 30 s; […] etomidate, 8 µM R-mTFD-MPAB or 10 µM pTFD-di-iPr-BnOH; n = 5
T1 construct: expressed in transfected cells; host or cells: Xenopus oocytes injected with capped mRNA, 1α:1β:5γ
Experimental: (§1) Experiments were performed in ND-96 buffer at room temperature (20–22°C). Oocytes were placed in a low-volume (30µl) flow chamber and impaled with borosilicate microelectrodes filled with 3M KCl (resistance 0.5–3 MΩ) and voltage-clamped at −50 mV (model OC-725C; Warner Instruments, Hamden, CT, USA). Superfusate solutions in ND-96 were delivered at 2 ml/min from glass syringe reservoirs via computer-controlled valves (VC-8; Warner Instruments), a micro-manifold (ALA-VM8; ALA Scientific Instruments, Farmingdale, NY, USA), and PTFE tubing. Currents were digitized at 200 Hz on a computer running ClampEx v8.0 software (Molecular Devices, San Jose, CA, USA). Digitized traces were filtered with a 10-Hz low-pass Bessel function, leak corrected and analyzed for peak amplitude off-line using Clampfit v8 software (Molecular Devices).
(§2) Drug protection from pCMBS modification was assessed under pCMBS exposure conditions that produced approximately half of the maximal modification ratio for each mutant receptor, and a least a value of 3. This approach balanced the magnitude of functional modification signals (smaller with less pCMBS exposure) against the challenge of using a reversibly bound ligand to competitively block an irreversible covalent cysteine-modifying reaction. […] Each oocyte was used in a single SCAMP experiment. […] Etomidate was used as a positive control for anesthetic protection in α1M236C and β3M286C mutants and as a negative control in α1S270C, α1A291C, β3L231C, γ2S301C, γ2I242C, and γ2L246C mutants. R-mTFD-MPAB was used as a positive control in α1S270C, α1A291C, β3L231C, and γ2LS301C mutants and as a negative control in α1M236C and β3M286C mutants. For each cysteine mutant and protective drug combination, five oocytes were studied.
(§3) Non-linear least squares fits and statistical analyses were performed in Prism 10.4.0. (GraphPad Software, San Diego, CA, USA). […] Protection (steric inhibition of pCMBS modification) was inferred when anesthetics produced significant reductions in modification ratios relative to control (no anesthetic) values. The statistical significance threshold was p < 0.05.

[2] = molecular target: T2, α1S270Cβ3γ2L GABAA receptors (Homo sapiens, UniProt P14867+P18507+P28472, S297C); details: α1S270C (α+); pCMBS 1 µM x 90 s; […] etomidate, 8 µM R-mTFD-MPAB or 10 µM pTFD-di-iPr-BnOH; n = 5
T2 construct: expressed in transfected cells; host or cells: Xenopus oocytes injected with capped mRNA, 1α:1β:5γ
Experimental: as §1, §2, §3

[3] = molecular target: T3, α1β3γ2S301C GABAA receptors (Homo sapiens, UniProt P14867+P18507+P28472, S340C); details: γ2S301C (γ+); pCMBS 100 µM x 90 s; […] etomidate, 8 µM R-mTFD-MPAB or 10 µM pTFD-di-iPr-BnOH; n = 5
T3 construct: expressed in transfected cells; host or cells: Xenopus oocytes injected with capped mRNAs mixed 1α:1β:5γ
T3 sequence (P14867 28-456): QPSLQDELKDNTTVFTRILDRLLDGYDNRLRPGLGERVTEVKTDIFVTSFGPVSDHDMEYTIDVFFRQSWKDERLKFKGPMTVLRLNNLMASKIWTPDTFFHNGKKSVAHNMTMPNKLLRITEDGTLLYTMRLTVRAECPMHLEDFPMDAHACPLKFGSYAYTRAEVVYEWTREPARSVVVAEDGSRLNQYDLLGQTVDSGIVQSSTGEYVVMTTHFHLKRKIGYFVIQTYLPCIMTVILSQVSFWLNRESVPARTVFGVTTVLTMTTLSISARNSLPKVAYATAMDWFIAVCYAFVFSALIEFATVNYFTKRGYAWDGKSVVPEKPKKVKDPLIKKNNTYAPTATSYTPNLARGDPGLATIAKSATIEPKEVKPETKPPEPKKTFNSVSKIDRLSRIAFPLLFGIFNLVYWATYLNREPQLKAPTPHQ
T3 sequence (P28472 26-473): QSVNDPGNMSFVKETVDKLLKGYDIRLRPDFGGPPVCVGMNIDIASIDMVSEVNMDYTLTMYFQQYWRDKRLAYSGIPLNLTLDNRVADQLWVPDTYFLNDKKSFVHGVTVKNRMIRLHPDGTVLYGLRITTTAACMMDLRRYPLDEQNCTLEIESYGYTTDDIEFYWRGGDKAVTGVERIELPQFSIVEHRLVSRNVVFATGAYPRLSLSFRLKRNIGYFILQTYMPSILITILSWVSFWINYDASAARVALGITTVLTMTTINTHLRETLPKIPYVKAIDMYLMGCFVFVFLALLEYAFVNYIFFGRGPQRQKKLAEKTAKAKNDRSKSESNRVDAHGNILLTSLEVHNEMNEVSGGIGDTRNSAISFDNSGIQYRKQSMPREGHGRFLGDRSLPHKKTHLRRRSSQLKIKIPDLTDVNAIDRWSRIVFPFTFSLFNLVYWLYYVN
T3 sequence (P18507 40-475 S340C): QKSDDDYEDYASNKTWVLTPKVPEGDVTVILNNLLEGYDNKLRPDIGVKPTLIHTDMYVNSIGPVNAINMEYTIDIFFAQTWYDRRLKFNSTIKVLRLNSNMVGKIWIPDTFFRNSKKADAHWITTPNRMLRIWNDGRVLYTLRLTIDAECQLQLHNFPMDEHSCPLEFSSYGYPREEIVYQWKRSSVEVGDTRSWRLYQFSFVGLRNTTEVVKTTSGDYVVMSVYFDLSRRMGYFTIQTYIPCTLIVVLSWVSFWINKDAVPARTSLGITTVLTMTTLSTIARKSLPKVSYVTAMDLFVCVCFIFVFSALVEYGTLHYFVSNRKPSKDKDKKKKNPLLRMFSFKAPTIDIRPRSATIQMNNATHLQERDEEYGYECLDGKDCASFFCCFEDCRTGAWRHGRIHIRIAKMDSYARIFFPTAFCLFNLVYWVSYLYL
Experimental: as §1, §2, §3

[4] = molecular target: T4, α1β3L231Cγ2L GABAA receptors (Homo sapiens, UniProt P14867+P18507+P28472, L256C); details: β3L231C (β–); pCMBS 100 µM x 30 s; […] etomidate, 8 µM R-mTFD-MPAB or 10 µM pTFD-di-iPr-BnOH; n = 5
T4 construct: expressed in transfected cells; host or cells: Xenopus oocytes injected with capped mRNA, 1α:1β:5γ
Experimental: as §1, §2, §3

T4 sequence (P28472 26-473 L256C, one chain of several): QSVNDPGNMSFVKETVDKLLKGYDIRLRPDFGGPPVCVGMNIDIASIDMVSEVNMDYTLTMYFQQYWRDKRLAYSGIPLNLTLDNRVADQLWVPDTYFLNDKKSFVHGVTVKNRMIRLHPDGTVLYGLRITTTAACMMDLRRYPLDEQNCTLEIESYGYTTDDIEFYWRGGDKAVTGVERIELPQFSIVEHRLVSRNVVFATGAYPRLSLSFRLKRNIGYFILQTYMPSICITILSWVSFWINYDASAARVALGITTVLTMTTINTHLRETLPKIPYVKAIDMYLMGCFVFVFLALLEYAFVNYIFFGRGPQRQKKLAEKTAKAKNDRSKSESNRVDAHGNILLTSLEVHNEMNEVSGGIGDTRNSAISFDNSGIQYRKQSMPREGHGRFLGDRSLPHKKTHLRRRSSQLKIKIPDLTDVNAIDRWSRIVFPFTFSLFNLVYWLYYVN
T4 sequence (P18507 40-475, one chain of several): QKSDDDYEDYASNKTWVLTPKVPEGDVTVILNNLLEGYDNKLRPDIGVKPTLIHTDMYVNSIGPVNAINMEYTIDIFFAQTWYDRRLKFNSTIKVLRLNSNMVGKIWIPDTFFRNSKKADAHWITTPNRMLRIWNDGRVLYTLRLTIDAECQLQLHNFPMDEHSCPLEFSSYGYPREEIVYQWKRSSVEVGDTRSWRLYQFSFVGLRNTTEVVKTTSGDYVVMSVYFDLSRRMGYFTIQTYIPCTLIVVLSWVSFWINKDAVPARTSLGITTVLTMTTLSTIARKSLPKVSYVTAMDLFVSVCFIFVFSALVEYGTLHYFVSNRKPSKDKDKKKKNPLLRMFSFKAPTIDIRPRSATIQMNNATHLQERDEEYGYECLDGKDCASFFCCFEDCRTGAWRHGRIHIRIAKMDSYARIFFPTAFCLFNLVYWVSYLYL
T2 sequence (P14867 28-456 S297C, one chain of several): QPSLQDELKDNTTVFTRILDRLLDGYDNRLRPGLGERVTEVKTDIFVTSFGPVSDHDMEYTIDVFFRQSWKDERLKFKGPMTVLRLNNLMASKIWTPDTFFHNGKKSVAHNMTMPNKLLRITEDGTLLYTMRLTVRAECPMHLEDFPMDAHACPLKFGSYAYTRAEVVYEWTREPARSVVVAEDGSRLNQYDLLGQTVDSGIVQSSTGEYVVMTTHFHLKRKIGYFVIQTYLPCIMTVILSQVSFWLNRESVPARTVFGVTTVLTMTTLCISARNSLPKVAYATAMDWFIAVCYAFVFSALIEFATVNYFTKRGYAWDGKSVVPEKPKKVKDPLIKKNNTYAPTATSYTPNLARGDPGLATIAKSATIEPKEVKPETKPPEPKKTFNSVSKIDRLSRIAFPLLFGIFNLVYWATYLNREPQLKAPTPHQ
T2 sequence (P18507 40-475, one chain of several): as the sequence (P18507 40-475, one chain of several) above
T1 sequence (P14867 28-456 M263C, one chain of several): as the sequence (P14867 28-456 S297C, one chain of several) above, with M236C, C270S counted along it
T1 sequence (P18507 40-475, one chain of several): as the sequence (P18507 40-475, one chain of several) above

Row | SMILES | protection from pCMBS modification (significant reduction of modification ratio vs control, p < 0.05) [1] | protection from pCMBS modification (significant reduction of modification ratio vs control, p < 0.05) [2] | protection from pCMBS modification (significant reduction of modification ratio vs control, p < 0.05) [3] | protection from pCMBS modification (significant reduction of modification ratio vs control, p < 0.05) [4]
1 | CCOC(=O)c1cncn1[C@H](C)c1ccccc1 [etomidate, R-etomidate] | protection was inferred | – | – | –
2 | C=CCC1(c2cccc(C3(C(F)(F)F)N=N3)c2)C(=O)NC(=O)N(C)C1=O (stereo not shown) [R-mTFD-MPAB, R-5-allyl-1-methyl-5-(m-trifluoromethyl-diazirynylphenyl) barbituric acid] | – | protection was inferred | protection was inferred | protection was also inferred
